From the NIST ThermoML archive (doi:10.1021/je400055v)

Settings: Liquid, Vibrating tube method

CCCCCCCCCCC [undecane]
mass density [kg/m3]
Settings | 313.15 K | 323.1 K | 333.02 K | 342.09 K | 352.93 K | 362.91 K
1000 kPa | 726.6 | 719 | 711.3 | 703.9 | 696.5 | 688.8
2000 kPa | – | 719.8 | – | 704.8 | 697.4 | –
2001 kPa | 727.3 | – | 712.1 | – | – | 689.9
3000 kPa | – | 720.6 | 713 | – | – | 691
3001 kPa | 728 | – | – | 705.8 | 698.4 | –
4000 kPa | 728.7 | 721.4 | 713.8 | 706.7 | 699.4 | 692
5000 kPa | 729.5 | – | 714.7 | 707.6 | 700.4 | –
5001 kPa | – | 722.2 | – | – | – | 693.1
6000 kPa | – | 723 | 715.5 | 708.5 | 701.4 | –
6001 kPa | 730.2 | – | – | – | – | 694.1
7000 kPa | 731 | 723.8 | 716.4 | 709.4 | – | –
7001 kPa | – | – | – | – | 702.3 | 695.2
8000 kPa | 731.8 | 724.6 | – | 710.4 | 703.3 | 696.2
8001 kPa | – | – | 717.3 | – | – | –
9000 kPa | 732.6 | 725.5 | 718.1 | 711.2 | 704.3 | 697.2
10000 kPa | 733.4 | – | 719 | 712.2 | – | 698.2
10001 kPa | – | 726.3 | – | – | 705.2 | –
11000 kPa | 734.1 | 727.1 | 719.9 | 713.1 | 706.2 | 699.2
12000 kPa | 734.9 | 727.9 | 720.7 | 714 | 707.1 | –
12001 kPa | – | – | – | – | – | 700.2
13000 kPa | 735.7 | 728.7 | 721.5 | 714.8 | 708 | 701.1
14000 kPa | – | 729.5 | 722.4 | 715.7 | 709 | –
14001 kPa | 736.4 | – | – | – | – | 702.1
15000 kPa | 737.2 | – | 723.2 | 716.6 | 709.8 | –
15001 kPa | – | 730.3 | – | – | – | 703
16000 kPa | 737.9 | 731.1 | 724 | 717.4 | 710.7 | –
16001 kPa | – | – | – | – | – | 704
17000 kPa | 738.7 | 731.9 | 724.8 | 718.2 | 711.6 | –
17001 kPa | – | – | – | – | – | 704.9
18000 kPa | 739.4 | 732.6 | 725.6 | 719.1 | 712.5 | 705.8
19000 kPa | 740 | 733.3 | 726.3 | 719.9 | 713.3 | –
19001 kPa | – | – | – | – | – | 706.6
20000 kPa | 740.7 | 734 | 727.1 | 720.6 | 714.1 | 707.5
21000 kPa | – | 734.7 | 727.8 | 721.4 | 715 | 708.4
21001 kPa | 741.3 | – | – | – | – | –
22000 kPa | 742 | 735.4 | 728.5 | 722.2 | 715.7 | 709.2
23000 kPa | 742.6 | 736 | 729.2 | 722.9 | 716.5 | 710
23999 kPa | – | – | – | 723.6 | – | –
24000 kPa | 743.2 | 736.7 | 729.9 | – | 717.3 | 710.9
25000 kPa | 743.7 | 737.3 | 730.5 | 724.3 | 718 | 711.6
